The test system of test [1] is IL2-induced lymphocyte recruitment. Put plainly: IL2-induced peritoneal recruitment of lymphocytes. The conditions noted are these: mice, Subcutaneous route, 15 min prior to IL2, cells counted 24 hours after IL2. The class given is in vivo, C3H/HEN mice. The method, then:
Administration of IL2 intraperitoneally causes migration of lymphocytes into the intraperitoneal cavity. This is a model for the cellular migration that occurs during inflammation.
C3H/HEN mice (Elevage Janvier, France) were intraperitoneally injected with IL2 (Serono Pharmaceutical Research Institute, 20 μg/kg, in saline). Compounds of the invention were suspended in 0.5% carboxymethylcellulose (CMC)/0.25% tween-20 and were administered by sc or po route (10 ml/kg) 15 min prior to administration of IL2.
Twenty-four hours after administration of IL2, peritoneal white blood cells were collected by 3 successive lavages of the peritoneal cavity with 5 ml phosphate buffered saline (PBS)-1 mM EDTA (+4° C.). The suspension was centrifuged (1700 g×10 min at +4° C.). The resulting pellet was suspended in 1 ml PBS-1 mM EDTA.
Lymphocytes were identified and counted using a Beckman/Coulter counter.
The animals were divided into 5 groups (6 mice each group):
Group 1: (baseline) received 0.5% CMC/0.25% tween-20 (vehicle of compound of the invention) and saline (vehicle of IL2); Group 2: (control IL2) received 0.5% CMC/0.25% tween-20 and injection of IL2; Group 3: Experimental group (Compound of the invention Dose 1) received a compound of the invention and injection of IL2; Group 4: Experimental group (Compound of the invention Dose 2) received a compound of the invention and injection of IL2; Group 5: Experimental group (Compound of the invention Dose 3) received a compound of the invention and injection of IL2; Group 6: Reference group received reference compound dexamethasone and injection of IL2
Inhibition of lymphocyte recruitment was calculated as follows:
Where Ly 1=Number of lymphocytes in group 1 (E3/μl), Ly 2=Number of lymphocytes in group 2 (E3/μl), Ly X=Number of lymphocytes in group X (3-5) (E3/μl)
The dose of compound of the invention required to inhibit lymphocyte recruitment by 50% (ID50) was calculated using a curve-fitting routine.

In a further test the target is 92 kDa gelatinase (MMP9) (Homo sapiens, UniProt P14780). Put plainly: MMP9 enzyme inhibition assay (fluorogenic peptide substrate McaPLGLDpaAR). The class given is biochemical. The conditions noted are these: recombinant human 92 kDa gelatinase, 37° C., 2 hours. Here is the method: Compounds were tested for inhibitory activity against 92 kDa gelatinase (MMP9) in an assay using a coumarin-labelled peptide substrate, (7-methoxycoumarin-4-yl)acetyl-Pro-Leu-Gly-Leu-(3-[2,4-dinitrophenyl]-L-2,3-diaminopropionyl)-Ala-Arg-NH2 (McaPLGLDpaAR) (Knight et al, FEBS Lett. 1992; 263-266).
Chain of 92 kDa gelatinase (MMP9) (P14780 107-707 limits assumed): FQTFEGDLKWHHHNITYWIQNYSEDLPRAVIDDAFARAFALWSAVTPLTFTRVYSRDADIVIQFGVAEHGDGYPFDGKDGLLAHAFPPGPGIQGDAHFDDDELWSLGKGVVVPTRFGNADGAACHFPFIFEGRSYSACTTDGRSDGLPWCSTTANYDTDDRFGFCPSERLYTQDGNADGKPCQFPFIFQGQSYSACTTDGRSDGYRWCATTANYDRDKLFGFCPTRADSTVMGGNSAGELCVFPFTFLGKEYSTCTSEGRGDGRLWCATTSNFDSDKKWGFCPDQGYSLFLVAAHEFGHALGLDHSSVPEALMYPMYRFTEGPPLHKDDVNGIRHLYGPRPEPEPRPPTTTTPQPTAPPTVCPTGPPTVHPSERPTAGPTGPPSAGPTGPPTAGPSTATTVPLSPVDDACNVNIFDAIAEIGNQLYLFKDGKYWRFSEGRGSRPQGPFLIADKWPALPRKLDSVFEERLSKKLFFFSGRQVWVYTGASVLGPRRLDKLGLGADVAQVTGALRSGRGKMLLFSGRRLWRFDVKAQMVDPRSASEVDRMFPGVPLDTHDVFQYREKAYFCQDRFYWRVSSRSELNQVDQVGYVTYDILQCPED
(§1) Stock solutions were made up as follows: • Assay Buffer: 100 mM Tris-HCl pH 7.6 containing 100 mM NaCl, 10 mM CaCl2, and 0.05% Brij 35 • Substrate: 0.4 mM McaPLGLDpaAR (from Bachem) (0.437 mg/ml) stock solution in 100% DMSO (stored at −20° C.). Dilute to 8 μM in assay buffer. • Enzyme: Recombinant human 92 kDa gelatinase (MMP-9; APMA (4-aminophenyl • mercuric acetate)—activated if necessary) appropriately diluted in assay buffer.
(§2) Test Compounds were prepared initially as 10 mM compound solution in 100% DMSO, diluted to 1 mM in 100% DMSO, then serially diluted 3-fold in 100% DMSO across columns 1-10 of a 96-well microtitre plate Assay concentration range, 100 μM (column 1) to 5.1 nM (column 10)
(§3) The assay was performed in a total volume of 100 μl per well in 96-well microtitre plates. Activated enzyme (20 μl) was added to the wells followed by 20 μl of assay buffer. Appropriate concentrations of test compounds dissolved in 10 μl of DMSO were then added followed by 50 μl of McaPLGLDpaAR (8 μM, prepared by dilution of DMSO stock in assay buffer). For each assay ten concentrations of test compound were examined in duplicate. Control wells lack either enzyme or test compound. The reactions were incubated at 37° C. for 2 hours. The fluorescence at 405 nm was measured immediately with an SLT Fluostar fluorometer (SLT Labinstruments GmbH, Grödig, Austria) using 320 nm excitation, without stopping the reaction.
(§4) The effect of the test compound was determined from the dose response curve generated by the 10 duplicate concentrations of inhibitor. The IC50 (the concentration of compound required to give a 50% decrease in enzyme activity) was obtained by fitting data to the equation, Y=a+((b−a)/(1+(c/X)^d)). (Y=inhibition achieved for a particular dose; X=the dose in nM; a=minimum y or zero % inhibition; b=maximum y or 100% inhibition; c=is the IC50; d=is the slope). The result was rounded to one significant figure.

The target of another test is metalloelastase (MMP12) (Homo sapiens, UniProt P39900). Description: MMP12 enzyme inhibition assay (fluorogenic peptide substrate McaPLGLDpaAR). The class given is biochemical. The conditions noted are these: protocol as for MMP9 assay. Here is the method:
as §1, §2, §3, §4
Compounds were tested for inhibitory activity against metalloelastase (MMP12) in an assay using a coumarin-labelled peptide substrate, (7-methoxycoumarin-4-yl)acetyl-Pro-Leu-Gly-Leu-(3-[2,4-dinitrophenyl]-L-2,3-diaminopropionyl)-Ala-Arg-NH2 (McaPLGLDpaAR) (Knight et al, FEBS Lett. 1992; 263-266). The protocol for this assay was as described for the MMP9 assay above.

The next test concerns the target T1, collagenase (MMP1) (Homo sapiens, UniProt P03956).
T1 sequence (P03956 100-469): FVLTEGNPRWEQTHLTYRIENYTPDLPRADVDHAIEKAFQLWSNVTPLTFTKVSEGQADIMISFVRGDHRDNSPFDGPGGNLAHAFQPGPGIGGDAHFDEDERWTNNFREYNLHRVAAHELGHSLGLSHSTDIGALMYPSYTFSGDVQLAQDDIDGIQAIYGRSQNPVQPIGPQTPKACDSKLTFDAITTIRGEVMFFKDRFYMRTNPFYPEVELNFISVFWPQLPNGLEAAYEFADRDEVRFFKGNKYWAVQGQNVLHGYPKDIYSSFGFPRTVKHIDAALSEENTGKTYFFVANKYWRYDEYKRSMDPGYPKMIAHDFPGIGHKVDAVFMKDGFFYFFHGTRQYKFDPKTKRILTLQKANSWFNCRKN
Description: MMP1 enzyme inhibition assay (fluorogenic peptide substrate McaPLGLDpaAR). The class given is biochemical. The conditions noted are these: protocol as for MMP9 assay. Here is the method:
as §1, §2, §3, §4
• Compounds were tested for inhibitory activity against collagenase (MMP1) in an assay using a coumarin-labelled peptide substrate, (7-methoxycoumarin-4-yl)acetyl-Pro-Leu-Gly-Leu-(3-[2,4-dinitrophenyl]-L-2,3-diaminopropionyl)-Ala-Arg-NH2 (McaPLGLDpaAR) (Knight et al, FEBS Lett. 1992; 263-266). The protocol for this assay was as described for the MMP9 assay above.

Some results are limits rather than exact numbers.

Chain of metalloelastase (MMP12) (P39900 106-470): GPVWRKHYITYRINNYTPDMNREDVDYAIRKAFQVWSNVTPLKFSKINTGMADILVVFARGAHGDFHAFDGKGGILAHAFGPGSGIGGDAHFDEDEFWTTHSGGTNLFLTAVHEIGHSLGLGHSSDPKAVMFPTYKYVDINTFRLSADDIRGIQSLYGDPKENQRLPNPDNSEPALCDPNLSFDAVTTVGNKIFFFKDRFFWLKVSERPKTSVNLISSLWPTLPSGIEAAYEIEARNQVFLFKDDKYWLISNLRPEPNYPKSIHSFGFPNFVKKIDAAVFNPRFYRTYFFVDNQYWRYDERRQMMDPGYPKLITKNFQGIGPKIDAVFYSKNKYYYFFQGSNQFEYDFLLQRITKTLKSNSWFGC

Take `C[C@@H]1C[C@H]2[C@@H]3CCC4=CC(=O)C=C[C@]4(C)[C@@]3(F)[C@@H](O)C[C@]2(C)[C@@]1(O)C(=O)CO` [dexamethasone, reference compound]: the “ID50 for inhibition of IL2-induced peritoneal recruitment of lymphocytes” value in test [1] was determined as 0.05 mg/kg.
On to `CC(C)C[C@@H](C(=O)N[C@H](c1noc(-c2ccco2)n1)C(C)(C)C)[C@H](O)C(=O)NO` [Example 5, 2S-Hydroxy-3R-[1S-(5-furan-2-yl-[1,2,4]oxadiazol-3-yl)-2,2-dimethyl-propylcarbamoyl]-5-methyl Hexanohydroxamic Acid], for which the half-maximal inhibitory concentration (IC50) (commonly the concentration that gives 50% inhibition) at 92 kDa gelatinase (MMP9) is 100 to 1000 nM; against metalloelastase (MMP12) it was less than 100 nM; at collagenase (MMP1), 100 to 1000 nM. For the same molecule, in test [1], the “ID50 for inhibition of IL2-induced peritoneal recruitment of lymphocytes” value was found to be 1 mg/kg.

These data come from patent publication US20100035943A1, “Oxa-and thiadiazoles and their use as metalloproteinase inhibitors” (VERNALIS (OXFORD) LTD, priority 2002, published 2010).
